Assay results taken from patent publication US5922573A, “IL-1 receptor antagonists with enhanced inhibitory activity” (Dompe' S.p.A., priority 1994, dated 1999).

Tests used:
[1] = system: murine thymocytes; assay: Inhibition of IL-1β-induced proliferation of murine thymocytes; type: cell-based, mouse; details: for Thymocyte proliferation to IL-1β 30 pg/ml, ID50: murine thymocytes; for Thymocyte proliferation to IL-1β 300 pg/ml, ID50: C3H/HeJ thymocytes with PHA, 72 hours
Method: 1. Proliferation of murine thymocytes: normal thymocytes are obtained by breaking up thymus glands of C3H/HeJ mice (resistant to bacterial endotoxin) aged 4-8 weeks. The thymocytes (5×10^5 cells/well of Cluster^96 plates) are incubated for 72 hours in RPMI-1640 culture medium with addition of antibiotics, L-glutamine, 2-ME, HEPES and 5% foetal calf serum at 37° C. in air with 5% CO2. […] To determine the proliferation of the thymocytes induced by IL-1, at the end of 72 hours of incubation […] of culture medium containing […] of tritiated thymidine are added to each well. After another 18 hours, the cells from each well are harvested onto small glass-fibre disks and the radioactivity incorporated (proportional to the proliferation of the cells) is measured with a β-counter. For determination of the inhibitory capacity of the improved mutants of IL-1ra , the proliferation of the thymocytes is measured in response to the minimum dose of IL-1 that induces optimum proliferation (generally around 0.3 ng/ml) in the absence or in the presence of stepped doses of IL-1ra (control standard) or of the improved mutants. The improved inhibitory activity of the mutants is determined by calculating the shift of the inhibition curve towards the lower doses when compared with the curve of IL-1ra .

[2] = system: IL-1β; assay: Inhibition of IL-1β-induced hypoglycaemia in vivo; details: hypoglycaemia induced in the mouse by 5.0 μg/kg IL-1β, intraperitoneal, serum glucose after two hours
Method: 1. Induction of hypoglycaemia: C3H/HeJ mice or mice of some other strain (3-5 mice/test group) receive stepped doses of IL-1β by intraperitoneal administration. After two hours the animals are killed and the blood is collected for preparation of the serum. The serum glucose content is determined after reaction with glucose oxidase in a commercial calorimetric assay.

[3] = target: T1, IL-1RII (Homo sapiens, UniProt P27930); assay: Binding to IL-1RII: displacement of 125I-IL-1β on cells expressing IL-1RII selectively; details: displacement of 125I IL-1β equilibrium binding on 10^6 cells
T1 construct: cells which express IL-1RII selectively (e.g. Burkitt's human lymphoma RAJI clone 1H7); endogenous in cells; host or cells: RAJI clone 1H7 (Burkitt's human lymphoma)
T1 sequence (P27930 14-398): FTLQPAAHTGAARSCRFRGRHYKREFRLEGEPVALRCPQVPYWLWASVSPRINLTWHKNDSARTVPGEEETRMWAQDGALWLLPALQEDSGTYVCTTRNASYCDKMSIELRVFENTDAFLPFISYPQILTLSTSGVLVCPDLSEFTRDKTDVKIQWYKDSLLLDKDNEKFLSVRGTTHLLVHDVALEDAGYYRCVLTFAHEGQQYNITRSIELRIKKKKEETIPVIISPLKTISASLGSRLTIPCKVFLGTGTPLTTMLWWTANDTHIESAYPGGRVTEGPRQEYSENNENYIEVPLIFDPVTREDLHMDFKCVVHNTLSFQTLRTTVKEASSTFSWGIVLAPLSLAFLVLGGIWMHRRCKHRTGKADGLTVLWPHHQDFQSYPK
Method: (§1) The inhibitory activity of the improved IL-1ra mutants is measured in receptor binding assays, using IL-1ra as the reference standard. Cells which express IL-1RI selectively (e.g. the murine thymoma clone EL4-6.1) and cells which express IL-1RII selectively (e.g. Burkitt's human lymphoma RAJI clone 1H7) are chosen as target cells. The number of receptors per cell and the binding affinity (Kd) in both the lines are calculated from saturation curves obtained by incubating the cells (10^6 cells/test tube in a final volume of 0.1 ml of culture medium with NaN3) with increasing doses of IL-1β labelled with 125I in the presence or absence of a 500-fold molar excess of unlabelled IL-1β (for calculating non-specific binding, generally always less than 5-10%) for the optimum times and at the optimum temperatures for attaining equilibrium (generally 2 hours at room temperature) (Scapigliati et al. FEBS Lett. 243: 394, 1989). To calculate the inhibition activity, tests are conducted by incubating the cells with a concentration of radiolabelled IL-1β corresponding to approximately half of the Kd in the absence or in the presence of stepped doses of IL-1ra (reference standard) or of the improved mutant.
(§2) The improved inhibitory activity of the mutants is determined by calculating the shift of the inhibition curve towards the lower doses when compared with the curve of IL-1ra.

[4] = target: T2, IL-1RI (Mus musculus, UniProt P13504); assay: Binding to IL-1RI: displacement of 125I-IL-1β on cells expressing IL-1RI selectively; details: displacement of 125I IL-1β equilibrium binding on 10^6 cells; murine thymoma clone EL4-6.1
T2 construct: Cells which express IL-1RI selectively (e.g. the murine thymoma clone EL4-6.1); endogenous in cells; host or cells: EL4-6.1 (murine thymoma clone)
T2 sequence (P13504 20-576): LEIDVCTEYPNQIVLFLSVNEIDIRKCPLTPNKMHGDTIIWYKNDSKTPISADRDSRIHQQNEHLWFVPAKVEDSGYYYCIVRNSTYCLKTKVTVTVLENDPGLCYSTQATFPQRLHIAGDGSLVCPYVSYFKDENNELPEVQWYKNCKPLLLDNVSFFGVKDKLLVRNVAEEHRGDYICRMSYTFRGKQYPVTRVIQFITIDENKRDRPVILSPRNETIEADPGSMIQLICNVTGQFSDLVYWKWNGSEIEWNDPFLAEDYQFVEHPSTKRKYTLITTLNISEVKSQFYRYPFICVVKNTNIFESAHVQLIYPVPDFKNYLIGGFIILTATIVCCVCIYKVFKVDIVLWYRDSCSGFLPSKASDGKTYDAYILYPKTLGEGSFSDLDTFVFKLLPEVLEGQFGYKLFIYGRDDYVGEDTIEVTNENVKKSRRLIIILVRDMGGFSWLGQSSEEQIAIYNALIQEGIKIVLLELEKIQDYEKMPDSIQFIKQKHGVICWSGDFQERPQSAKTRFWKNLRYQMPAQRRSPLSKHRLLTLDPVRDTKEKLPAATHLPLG
Method: as §1, §2

[5] = system: IL-1β; assay: Inhibition of IL-1β-induced neutrophilia in vivo; details: neutrophilia induced in the mouse by 150 ng/kg IL-1β; antagonist intraperitoneally at -15 min, 0, +15 min; read four hours after treatment
Method: 2. Induction of neutrophilia: C3H/HeJ mice or mice of some other strain (3 mice/test group) receive stepped doses of IL-1β with a single intraperitoneal administration. The increase of circulating neutrophils induced by IL-1 is evaluated by cytofluorimetry four hours after the treatment.

[6] = system: human osteosarcoma MG-63; assay: Inhibition of IL-1β-induced IL-6 production in MG-63 cells; type: cell-based; details: MG-63 cells stimulated with IL-1 around 0.3 ng/ml, 48 hours
Method: The quantity of IL-6 in the culture supernatants is measured by a commercial ELISA assay or determined in the biological assay of proliferation of 7TD1 cells.

[7] = Burkitt's human lymphoma RAJI clone 1H7

Row | Substance | Thymocyte proliferation to IL-1β 30 pg/ml, ID50 [1] [ng/mL] | Hypoglycaemia, ID50 [2] [mg/kg] | Binding to IL-1RII, ID50 [3, 7] [nM] | Binding to IL-1RI, ID50 [4] [nM] | Neutrophilia, ID100 [5] [mg/kg] | IL-6 production, ID50 [6] [ng/mL] | Thymocyte proliferation to IL-1β 300 pg/ml, ID50 [1] [ng/mL] | Binding to IL-1RII, ID50 ([3]; RAJI clone 1H7, unit as printed in this cell) [nM]
1 | MILRA-3: IL-1ra double mutant N91/T109→R/A | 0.285 | 0.076 | 70.70 | 0.22 |  |  |  | 
2 | MILRA-1: IL-1ra mutant N91→R (arginine in position 91 of the mature protein) |  | 0.128 | 13.20 | 0.17 | < 0.0225 | 0.62 | 1.78 | 
3 | MILRA-2: IL-1ra mutant T109→A (alanine in position 109 of the mature protein) |  |  |  | 0.19 |  | 1.12 | 1.75 | 1.8
4 | IL-1ra: wild type IL-1 receptor antagonist, a mature protein of 152 amino acids, used as reference standard [reference compound] | 0.813 | 0.968 | 19.60 | 0.34 | 0.225 | 3.60 | 4.10 | 
